Test results published in article PMC11574021, “CEP192 localises mitotic Aurora-A activity by priming its interaction with TPX2” (The EMBO Journal, 2024).

Experiments:
[1] = tested on: LATS2-pS83 in RPE1 p53-/- cells; test: Immunofluorescence, LATS2-pS83 spindle pole signal intensity, RPE1 p53-/-; format: cell-based, Homo sapiens; conditions: Aurora-A inhibitor 30 min (500 nM)
Protocol: As noted in the figures, the following drugs were incubated with cells for 30 min at 37 °C: Aurora-B-i ZM447439 2 µM [10 mM], PLK1-I BI2536 1 µM [10 mM] and Aurora-A-i MLN8237 [5 mM] was used at 250 and 500 nM in U251 and RPE1 cells, respectively. Drugs were resuspended in DMSO to the stock concentrations indicated in square brackets. BI2536 (HY-50698), MLN8237 (HY-10971) and ZM447439 (HY-10128) were all purchased from MedChemExpress. For western blotting, a 20-min pre-treatment with proteasome inhibitor (20 µM MG-132, MerckMillipore, 47490 [20 mM]) was required prior to the addition of DMSO control or kinase inhibitors. This prevented mitotic exit as a consequence of checkpoint override following Aurora-A and Aurora-B inhibitor addition.
For siRNA depletion, 1 × 10^5 cells were seeded in six-well plates and transfected as described above for 48 h prior to fixation. For all other experiments, 2.5 × 10^5 cells were seeded in six-well plates and grown for 24 h before fixation. All cells were grown on 12 mm diameter glass coverslips (VWR, 631–1577). […]
For CEP192, LATS2-pS83, PCNT, PLK1 and γ-tubulin intensity, a 20-pixel diameter circle was centred over each centrosome and the intensity measured. […]

[2] = tested on: Aurora-A in U251 and RPE1 cells; test: Western blot, total Aurora-A protein level; format: cell-based, Homo sapiens; conditions: mitotic U251 and RPE1 lysates, siRNA 48 h
Protocol: Cells were lysed on ice for 30 min in lysis buffer (50 mM tris pH 8.0, 300 mM NaCl, 0.2%(v/v) NP-40, 10%(v/v) glycerol, protease inhibitor cocktail C, phosphatase inhibitor cocktail 3 (Sigma, 1:200 dilution), 100 nM okadaic acid (Enzo, ALX-350-003-C100)). Lysates were then centrifuged at 14,000 × g, 15 min, 4 °C, the supernatants were transferred to a fresh tube, and the pellet was discarded. Protein concentrations were measured by Bradford assay using Protein Assay Dye Reagent Concentrate (Bio-Rad Laboratories, 5000006). NuPage LDS sample buffer, supplemented with NuPAGE sample reducing agent (Invitrogen) were added prior to boiling for 10 min at 90 °C. Equal amounts of protein, between 8–20 µg/lane, were loaded into pre-cast 4–12% Bis-Tris gels (Invitrogen, NP0322BOX) and proteins separated in 1x MOPS buffer (Invitrogen) and transferred to nitrocellulose membrane (0.45 µM). Nitrocellulose was then blocked in 5% milk (wt/v) in TBS, 0.1% Tween (v/v) (TBST) for 1 h. Primary and secondary antibodies were diluted in 5% milk, TBST and incubated overnight at 4 °C or for 1 h at room temperature, respectively. Species-specific secondary antibodies conjugated to horseradish peroxidase (HRP) were used (anti-Mouse, Cytiva NA931V; anti-Rabbit, Cytiva NA934; anti-Sheep, Jackson 713-035-003). Membranes were washed for 1 h in TBST, changing the buffer five times, after each antibody incubation. […]

Molecule: COc1cc(Nc2ncc3c(n2)-c2ccc(Cl)cc2C(c2c(F)cccc2OC)=NC3)ccc1C(=O)O [Alisertib]
- reduction of pS83 LATS2 levels [1]: 50%
- reduction of pS83 LATS2 levels ([1]; listed as Aurora-A inhibition): about 50%

Molecule: 5′-CGGUAGUGAUAAAAGCUCAtt-3′ [siTPX2]
- total Aurora-A protein levels [2]: decreased total Aurora-A protein levels
